# Data taken from patent publication US9738932B2, “Biomarkers for cardiovascular side-effects induced by cox-2 inhibitory compounds” (FIRALIS SAS, priority 2005, dated 2017).
# Test system: mRNA expression in cardiovascular tissues
# Test: Affymetrix GeneChip mRNA expression profiling of monkey tissues (iliac vein, pulmonary vein, aorta, carotid artery, heart) after two-week oral-gavage treatment
# [1] = iliac vein, Vioxx animal A60055
# Method: Administration of compounds. A two-week oral-gavage treatment with the Cox-2 specific inhibitor COX189 (Lumiracoxib®, Novartis) in comparison with rofecoxib (Vioxx®, Merck), and celecoxib (Celebrex®, Pharmacia/Pfizer), and with the nonselective NSAID, diclofenac (Voltaren®, Novartis) was performed. […] The test items were administered daily at doses of 100 mg/kg/day, except Vioxx® which was administered at 50 mg/kg/day.
# Gene expression profiles. After a period of time (e.g., four weeks) of compound/drug administration, the treated animals are necropsied. 120 tissues are dissected and rapidly snap-frozen for genomics analysis. Organ samples are isolated for histopathological examinations and for gene expression localizations, such as by in situ hybridization.
# Gene expression profiles have been generated using the Affymetrix microarray technology. (i) RNA extraction and purification: Briefly, total RNA was obtained by acid guanidinium thiocyanate-phenol-chloroform extraction (Trizol®, Invitrogen Life Technologies, San Diego, Calif.) from each frozen tissue section and the total RNA was then purified on an affinity resin (Rneasy®, Qiagen) according to the manufacturer's instructions. Total RNA was quantified by the absorbance at λ=260 nm (A260 nm) and the purity was estimated by the ratio A260 nm/A280 nm. Integrity of the RNA molecules was confirmed by non-denaturing agarose gel electrophoresis. RNA was stored at −80° C. until analysis. […] (ii) GeneChip® experiment: All GeneChip® experiments were conducted in the Genomics Factory EU following recommendations by the manufacturer of the GeneChip® system (Affymetrix, Expression Analysis Technical Manual (Affymetrix, Santa Clara, Calif., 2005). Human U133A genome arrays were used for transcript expression analysis. Double stranded cDNA was synthesized with a starting amount of approximately 5 μg full-length total RNA using the Superscript Choice System (Invitrogen Life Technologies) in the presence of a T7-(dT) 24 DNA oligonucleotide primer. Following synthesis, the cDNA was purified by phenol/chloroform/isoamyl alcohol extraction and ethanol precipitation. The purified cDNA was then transcribed in vitro using the BioArray® High Yield RNA Transcript Labeling Kit (ENZO) in the presence of biotinylated ribonucleotides form biotin labelled cRNA. The labelled cRNA was then purified on an affinity resin (Rneasy, Qiagen), quantified and fragmented. An amount of approximately 10 μg labelled cRNA was hybridized for approximately 16 hours at 45° C. to an expression probe array. The array was then washed and stained twice with streptavidin-phycoerythrin (Molecular Probes) using the GeneChip Fluidics Workstation 400 (Affymetrix). The array was then scanned twice using a confocal laser scanner (GeneArray Scanner®, Agilent) resulting in one scanned image. This resulting “.dat-file” was processed using the MASS program (Affymetrix) into a “.cel-file”. The “.cel file” was then transferred to tan Affymetrix GeneChip Laboratory Information Management System (LIMS) database, which is connected to a UNIX Sun Solaris server through a network filing system that allows for the average intensities for all probes cells (CEL file) to be downloaded into an Oracle database (NPGN). Raw data was converted to expression levels using a “target intensity” of 100. […] The data were checked for quality and loaded in the GeneSpring® software versions 5.0 (Silicon Genetics, Calif., US) for statistical analysis.
# Quality control analysis of transcriptome data: The following quality measures were analysed for each sample: Scaling factor, background, percent present calls, AFFX-GAPDH 3′: AFFX-GAPDH 5′-ratio, AFFX-GAPDH 3′ variance, AFFX-Beta-actin 3′: AFFX-Beta-actin 5′-ratio.
smiles,measurement,setting,value
"CS(=O)(=O)c1ccc(C2=C(c3ccccc3)C(=O)OC2)cc1 [Vioxx®, rofecoxib]","expression of MHC class I classical and non-classical molecules, MHC class II molecules and their receptors","16 tissues, ANOVA p<0.05, 50 mg/kg/day, two weeks",significant increases
same,"ACE (209749_s_at) mRNA expression, fold change vs control",[1],1.3 fold
same,"B2M (216231_s_at) mRNA expression, fold change vs control",[1],1.4 fold
same,"BCL6 (215990_s_at) mRNA expression, fold change vs control",[1],1.3 fold
same,"BTN2A2 (205298_s_at) mRNA expression, fold change vs control",[1],1.4 fold
same,"CCR1 (205098_at) mRNA expression, fold change vs control",[1],1.4 fold
same,"CD2 (205831_at) mRNA expression, fold change vs control",[1],1.4 fold
same,"CD48 (204118_at) mRNA expression, fold change vs control",[1],1.5 fold
same,"CD53 (203416_at) mRNA expression, fold change vs control",[1],1.5 fold
same,"CDC2 (210559_s_at) mRNA expression, fold change vs control",[1],1.5 fold
same,"CYBB (203922_s_at) mRNA expression, fold change vs control",[1],1.4 fold
same,"EMP3 (203729_at) mRNA expression, fold change vs control",[1],1.4 fold
same,"FCER1G (204232_at) mRNA expression, fold change vs control",[1],1.4 fold
same,"FCGR2A (203561_at) mRNA expression, fold change vs control",[1],1.5 fold
same,"FCGRT (218831_s_at) mRNA expression, fold change vs control",[1],1.4 fold
same,"FKBP11 (219117_s_at) mRNA expression, fold change vs control",[1],1.4 fold
same,"FKBP11 (219118_at) mRNA expression, fold change vs control",[1],1.5 fold
same,"GP6 (220336_s_at) mRNA expression, fold change vs control",[1],1.4 fold
same,"HCLS1 (202957_at) mRNA expression, fold change vs control",[1],1.3 fold
same,"HEM1 (209734_at) mRNA expression, fold change vs control",[1],1.5 fold
same,"HLA-A (210514_x_at) mRNA expression, fold change vs control",[1],1.3 fold
same,"HLA-A (213932_x_at) mRNA expression, fold change vs control",[1],1.5 fold
same,"HLA-C (211799_x_at) mRNA expression, fold change vs control",[1],1.4 fold
same,"HLA-E (200904_at) mRNA expression, fold change vs control",[1],1.4 fold
same,"HLA-F (221978_at) mRNA expression, fold change vs control",[1],1.3 fold
same,"ICAM1 (202637_s_at) mRNA expression, fold change vs control",[1],1.3 fold
same,"IL13RA1 (210904_s_at) mRNA expression, fold change vs control",[1],1.2 fold
same,"PIK3CD (203879_at) mRNA expression, fold change vs control",[1],1.2 fold
same,"PRKCBP1 (209048_s_at) mRNA expression, fold change vs control",[1],1.3 fold
same,"PRKCBP1 (209049_s_at) mRNA expression, fold change vs control",[1],1.5 fold
same,"PTPN7 (204852_s_at) mRNA expression, fold change vs control",[1],1.4 fold
same,"SIGIRR (52940_at) mRNA expression, fold change vs control",[1],1.2 fold
same,"STAT1 (200887_s_at) mRNA expression, fold change vs control",[1],1.5 fold
same,"STAT1 (AFFX-HUMISGF3A/M97935_3_at) mRNA expression, fold change vs control",[1],1.4 fold
same,"STAT3 (208992_s_at) mRNA expression, fold change vs control",[1],1.5 fold
same,"TCIRG1 (204158_s_at) mRNA expression, fold change vs control",[1],1.2 fold
same,"THY1 (213869_x_at) mRNA expression, fold change vs control",[1],1.3 fold
same,"TMPO (209753_s_at) mRNA expression, fold change vs control",[1],1.5 fold
same,"TMSB10 (217733_s_at) mRNA expression, fold change vs control",[1],1.4 fold
same,"TNFRSF21 (218856_at) mRNA expression, fold change vs control",[1],1.5 fold
same,"TRB@ (210915_x_at) mRNA expression, fold change vs control",[1],1.3 fold
same,"TRB@ (213193_x_at) mRNA expression, fold change vs control",[1],1.5 fold
same,209813_x_at fold change vs control,"iliac vein, animal A60055",2.4 fold
same,AIF1 (209901_x_at) fold change vs control,"iliac vein, animal A60055",3.0 fold
same,AIF1 (213095_x_at) fold change vs control,"iliac vein, animal A60055",3.2 fold
same,B2M (201891_s_at) fold change vs control,"iliac vein, animal A60055",3.0 fold
same,BCL3 (204908_s_at) fold change vs control,"iliac vein, animal A60055",1.7 fold
same,BTN3A1 (207485_x_at) fold change vs control,"iliac vein, animal A60055",4.0 fold
same,BTN3A3 (38241_at) fold change vs control,"iliac vein, animal A60055",2.3 fold
same,BTN3A3 (204820_s_at) fold change vs control,"iliac vein, animal A60055",4.1 fold
same,BTN3A3 (204821_at) fold change vs control,"iliac vein, animal A60055",3.3 fold
same,C1QA (218232_at) fold change vs control,"iliac vein, animal A60055",1.7 fold
same,C1QB (202953_at) fold change vs control,"iliac vein, animal A60055",1.8 fold
same,C1R (212067_s_at) fold change vs control,"iliac vein, animal A60055",2.0 fold
same,C1S (208747_s_at) fold change vs control,"iliac vein, animal A60055",3.6 fold
same,C2 (203052_at) fold change vs control,"iliac vein, animal A60055",3.3 fold
same,C4A (208451_s_at) fold change vs control,"iliac vein, animal A60055",3.8 fold
same,CASP1 (209970_x_at) fold change vs control,"iliac vein, animal A60055",2.3 fold
same,CASP1 (211367_s_at) fold change vs control,"iliac vein, animal A60055",2.7 fold
same,CCL2 (216598_s_at) fold change vs control,"iliac vein, animal A60055",150.9 fold
same,CCL3 (205114_s_at) fold change vs control,"iliac vein, animal A60055",3.8 fold
same,CCL5 (1405_i_at) fold change vs control,"iliac vein, animal A60055",2.8 fold
same,CCL8 (214038_at) fold change vs control,"iliac vein, animal A60055",8.8 fold
same,CCL18 (209924_at) fold change vs control,"iliac vein, animal A60055",2.0 fold
same,CCL19 (210072_at) fold change vs control,"iliac vein, animal A60055",3.0 fold
same,CCNB2 (202705_at) fold change vs control,"iliac vein, animal A60055",2.9 fold
same,CD3D (213539_at) fold change vs control,"iliac vein, animal A60055",1.9 fold
same,CD8A (205758_at) fold change vs control,"iliac vein, animal A60055",2.3 fold
same,CD14 (201743_at) fold change vs control,"iliac vein, animal A60055",2.0 fold
same,CD74 (209619_at) fold change vs control,"iliac vein, animal A60055",2.8 fold
same,CLU (208791_at) fold change vs control,"iliac vein, animal A60055",2.2 fold
same,CMAH (210571_s_at) fold change vs control,"iliac vein, animal A60055",2.0 fold
same,CTSC (201487_at) fold change vs control,"iliac vein, animal A60055",2.1 fold
same,CTSK (202450_s_at) fold change vs control,"iliac vein, animal A60055",1.5 fold
same,CTSS (202902_s_at) fold change vs control,"iliac vein, animal A60055",1.6 fold
same,CX3CR1 (205898_at) fold change vs control,"iliac vein, animal A60055",3.6 fold
same,CXCL9 (203915_at) fold change vs control,"iliac vein, animal A60055",9.3 fold
same,CXCL10 (204533_at) fold change vs control,"iliac vein, animal A60055",19.8 fold
same,CXCL11 (210163_at) fold change vs control,"iliac vein, animal A60055",9.7 fold
same,CXCL11 (211122_s_at) fold change vs control,"iliac vein, animal A60055",6.6 fold
same,CXCL12 (209687_at) fold change vs control,"iliac vein, animal A60055",1.6 fold
same,CYBA (203028_s_at) fold change vs control,"iliac vein, animal A60055",1.8 fold
same,CYBB (203923_s_at) fold change vs control,"iliac vein, animal A60055",1.6 fold
same,CYP1B1 (202436_s_at) fold change vs control,"iliac vein, animal A60055",2.6 fold
same,CYP3A5 (214234_s_at) fold change vs control,"iliac vein, animal A60055",3.9 fold
same,CYP11B1 (214630_at) fold change vs control,"iliac vein, animal A60055",2.5 fold
same,DUSP6 (208893_s_at) fold change vs control,"iliac vein, animal A60055",3.0 fold
same,ECGF1 (204858_s_at) fold change vs control,"iliac vein, animal A60055",3.3 fold
same,ECM1 (209365_s_at) fold change vs control,"iliac vein, animal A60055",2.0 fold
same,F2RL1 (206429_at) fold change vs control,"iliac vein, animal A60055",2.0 fold
same,F13A1 (203305_at) fold change vs control,"iliac vein, animal A60055",1.8 fold
same,FCGR1A (214511_x_at) fold change vs control,"iliac vein, animal A60055",2.0 fold
same,FCGR3A (204006_s_at) fold change vs control,"iliac vein, animal A60055",2.5 fold
same,G1P2 (205483_s_at) fold change vs control,"iliac vein, animal A60055",4.5 fold
same,GZMB (210164_at) fold change vs control,"iliac vein, animal A60055",3.2 fold
same,HCA127 (220040_x_at) fold change vs control,"iliac vein, animal A60055",2.0 fold
same,HCK (208018_s_at) fold change vs control,"iliac vein, animal A60055",1.8 fold
same,HFE (210864_x_at) fold change vs control,"iliac vein, animal A60055",1.8 fold
